Results: patent publication US20060094755A1, “Novel quinoline-based metal chelators as antiviral agents” (Bioflexis, LLC, priority 2004, published 2006)

How the values were obtained:
IN (integrase) = molecular target: T1, IN (integrase) (Human immunodeficiency virus type 1 group M subtype B, UniProt P12497); conditions: cited from earlier work
T1 construct: HIV-1 recombinant IN (HIV-1NL4-3 Integrase, NIH AIDS Reagent program Catalog No:2959); purchased NIH AIDS Reagent program 2959

HIV = conditions: ex-vivo viral inhibition assay; cited from earlier work
HIV-1 MC99IIIBΔTat-Rev = test: viral inhibition assay (p24 ELISA, CEM-TART cells), FIG. 4; format: cell-based; conditions: Human immunodeficiency virus 1
Text: The novel compounds of the present invention can be further evaluated for their ability to inhibit viral replication in ex-vivo assays. Most common of these include determining the viral replication in either purified human CD4+ T cell blasts infected with HIV in the presence or absence of various concentrations of inhibitors or HIV infected MT4 cell line treated with different concentration of inhibitors. A standard laboratory method in screening for inhibitors against HIV in biological assays involves the use of recombinant HIV strain that can replicate only in the supporting complementing cell line. This model system allows the examination of HIV viral replication in a biologically contained manner and is suitable for inhibitor screening. The method is described briefly below. The recombinant HIV-1 strain (HIV-1 MC99IIIBΔTat-Rev; NIH Aids Reagent Program, catalog No: 1943) is genetically engineered to replicate only in supporting recombinant cell lines (CEM-TART Cells, NIH Aids Reagent Program catalog No 1944). The construction of the recombinant mutant virus, the supporting cell line and the biological assay are described in detail elsewhere. […] The extent of viral replication can be determined by measuring the soluble viral p24 protein present in the culture supernatant collected at 24, 48, 72 and 96-hr post infection using commercial ELISA kits.

Structure (SMILES)	inhibition of 3′ processing (IN (integrase))	inhibition of strand transfer reaction (IN (integrase))	EC50 (HIV) [nM]	IC50 (HIV-1 MC99IIIBΔTat-Rev) [µM]
O=C(O)C(=O)CC(=O)c1cccn1Cc1ccc(F)cc1 [Compound 8]	do not inhibit 3′ processing	inhibit strand transfer reaction	–	–
O=C(/C=C(\O)c1nn[nH]n1)c1c[nH]c2ccc(Cl)cc12 [Compound 10]	inhibit both reactions	inhibit both reactions	700	–
O=C(O)C(=O)CC(=O)c1cc(OCc2ccccc2)cc(OCc2ccccc2)c1 [Compound 6]	do not inhibit 3′ processing	inhibit strand transfer reaction	–	–
O=C(O)CN(CCN(CCN(CC(=O)O)CC(=O)O)Cc1ccc2cccc(O)c2n1)CC(=O)O [Compound 16]	–	–	–	19.3
